In patent US10765114B2, “4-amino-6-(pyridyl and 2-substitutedphenyl)-picolinates and 6-amino-2-(pyridyl and 2-substitutedphenyl)-pyrimidine-4-carboxylates and their use as herbicides” (Dow AgroSciences LLC, priority 2013, dated 2020):

Assays:
Test in all cases: Post-Emergent Test III (Wheat and Barley)
ALOMY (blackgrass) = type: in vivo, Alopecurus myosuroides; settings: for pest or weed control at 35 g/ha: 35 g ai/ha; for pest or weed control at 70 g/ha: 70 g ai/ha; for GR50, ALOMY: effective dose for growth reduction of 50 percent; for GR50, ALOMY / GR80, ALOMY: probit analysis; for GR80, ALOMY: effective dose for growth reduction of 80 percent
Experimental: (§1) Seeds of the desired test plant species were planted in Sun Gro MetroMix® 306 planting mixture, which typically has a pH of 6.0 to 6.8 and an organic matter content of about 30 percent, in plastic pots with a surface area of 103.2 square centimeters (cm^2). When required to ensure good germination and healthy plants, a fungicide treatment and/or other chemical or physical treatment was applied. The plants were grown for 7-36 days in a greenhouse with an approximate 14 h photoperiod which was maintained at about 18° C. during the day and 17° C. during the night. Nutrients and water were added on a regular basis and supplemental lighting was provided with overhead metal halide 1000-Watt lamps as necessary. The plants were employed for testing when they reached the second or third true leaf stage.
(§2) A weighed amount, determined by the highest rate to be tested, of each test compound was placed in a 25 mL glass vial and was dissolved in 4 mL of a 97:3 v/v mixture of acetone and DMSO to obtain concentrated stock solutions. […] The concentrated stock solutions obtained were diluted with 20 mL of an aqueous mixture containing acetone, water, isopropyl alcohol, DMSO, Agri-Dex crop oil concentrate, and X-77 surfactant in a 48:39:10:1.5:1.5:0.02 v/v ratio to obtain spray solutions containing the highest application rates. Additional application rates were obtained by serial dilution of 12 mL of the high rate solution into a solution containing 2 mL of 97:3 v/v mixture of acetone and DMSO and 10 mL of an aqueous mixture containing acetone, water, isopropyl alcohol, DMSO, Agri-Dex crop oil concentrate, and X-77 surfactant in a 48:39:10:1.5:1.5:0.02 v/v ratio to obtain ½×, ¼×, ⅛× and 1/16× rates of the high rate. Compound requirements are based upon a 12 mL application volume at a rate of 187 liters per hectare (L/ha). Formulated compounds were applied to the plant material with an overhead Mandel track sprayer equipped with 8002E nozzles calibrated to deliver 187 L/ha over an application area of 0.503 square meters at a spray height of 18 inches (43 cm) above the average plant canopy height. Control plants were sprayed in the same manner with the solvent blank.
(§3) The treated plants and control plants were placed in a greenhouse as described above and watered by subirrigation to prevent wash-off of the test compounds. After 21 dAYS, the condition of the test plants as compared with that of the untreated plants was determined visually and scored on a scale of 0 to 100 percent where 0 corresponds to no injury and 100 corresponds to complete kill and presented as indicated in Table A.
(§4) By applying the well-accepted probit analysis as described by J. Berkson in Journal of the American Statistical Society, 48, 565 (1953) and by D. Finney in “Probit Analysis” Cambridge University Press (1952), herbicidal injury of a specific compound at various rates can be used to calculate GR10, GR20, GR50, GR80 and GR90 values, which are defined as growth reduction factors that correspond to the effective dose of herbicide required to provide plant growth reduction (GR) of 10 percent, 20 percent, 50 percent, 80 percent and 90 percent, respectively. Probit analysis was applied to data collected from multiple dose rates of individual compounds utilizing the procedures explained in the following examples. The analysis of those dose rates is captured in the following tables.

APESV (windgrass) = type: in vivo, Apera spica-venti; settings: for pest or weed control at 35 g/ha: 35 g ai/ha; for pest or weed control at 70 g/ha: 70 g ai/ha; for GR50, APESV: effective dose for growth reduction of 50 percent; for GR50, APESV / GR80, APESV: probit analysis; for GR80, APESV: effective dose for growth reduction of 80 percent
Experimental: as §1, §2, §3, §4

KCHSC (kochia) = type: in vivo, Kochia scoparia; settings: for pest or weed control at 35 g/ha: 35 g ai/ha; for pest or weed control at 70 g/ha: 70 g ai/ha; for GR50, KCHSC: effective dose for growth reduction of 50 percent; for GR50, KCHSC / GR80, KCHSC: probit analysis; for GR80, KCHSC: effective dose for growth reduction of 80 percent
Experimental: as §1, §2, §3, §4

SETVI (green foxtail) = type: in vivo, Setaria viridis; settings: for pest or weed control at 35 g/ha: 35 g ai/ha; for pest or weed control at 70 g/ha: 70 g ai/ha; for GR50, SETVI: effective dose for growth reduction of 50 percent; for GR50, SETVI / GR80, SETVI: probit analysis; for GR80, SETVI: effective dose for growth reduction of 80 percent
Experimental: as §1, §2, §3, §4

HORSS = type: in vivo; settings: for pest or weed control at 35 g/ha: 35 g ai/ha; for pest or weed control at 70 g/ha: 70 g ai/ha; for GR20, HORSS: effective dose for growth reduction of 20 percent, probit analysis
Experimental: as §1, §2, §3, §4

LOLSS = type: in vivo; settings: for GR50, LOLSS: effective dose for growth reduction of 50 percent; for GR50, LOLSS / GR80, LOLSS: probit analysis; for GR80, LOLSS: effective dose for growth reduction of 80 percent; for pest or weed control at 35 g/ha: 35 g ai/ha; for pest or weed control at 70 g/ha: 70 g ai/ha
Experimental: as §1, §2, §3, §4

TRZSS = type: in vivo; settings: for pest or weed control at 35 g/ha: 35 g ai/ha; for pest or weed control at 70 g/ha: 70 g ai/ha; for GR20, TRZSS: effective dose for growth reduction of 20 percent, probit analysis
Experimental: as §1, §2, §3, §4

[1] = Alopecurus myosuroides, post-emergence, 504 h, postemergence, read-out: Visual Growth Reduction (%) 21 Days After Application, ALOMY
[2] = Apera spica-venti, post-emergence, 504 h, postemergence, read-out: Visual Growth Reduction (%) 21 Days After Application, APESV
[3] = Bassia scoparia, post-emergence, 504 h, postemergence, read-out: Visual Growth Reduction (%) 21 Days After Application, KCHSC
[4] = Setaria viridis, post-emergence, 504 h, postemergence, read-out: Visual Growth Reduction (%) 21 Days After Application, SETVI
[5] = Hordeum vulgare, post-emergence, 504 h, postemergence, read-out: Visual Growth Reduction (%) 21 Days After Application, HORSS
[6] = post-emergence, 504 h, postemergence, read-out: Visual Growth Reduction (%) 21 Days After Application, LOLSS
[7] = Triticum aestivum, post-emergence, 504 h, postemergence, read-out: Visual Growth Reduction (%) 21 Days After Application, TRZSS

Row | SMILES | pest or weed control at 35 g/ha (ALOMY (blackgrass); [1]) [%] | pest or weed control at 70 g/ha (ALOMY (blackgrass); [1]) [%] | GR50, ALOMY (ALOMY (blackgrass)) [g ai/ha] | GR80, ALOMY (ALOMY (blackgrass)) [g ai/ha] | pest or weed control at 35 g/ha (APESV (windgrass); [2]) [%] | pest or weed control at 70 g/ha (APESV (windgrass); [2]) [%] | GR50, APESV (APESV (windgrass)) [g ai/ha] | GR80, APESV (APESV (windgrass)) [g ai/ha] | pest or weed control at 35 g/ha (KCHSC (kochia); [3]) [%] | pest or weed control at 70 g/ha (KCHSC (kochia); [3]) [%] | GR50, KCHSC (KCHSC (kochia)) [g ai/ha] | GR80, KCHSC (KCHSC (kochia)) [g ai/ha] | pest or weed control at 35 g/ha (SETVI (green foxtail); [4]) [%] | pest or weed control at 70 g/ha (SETVI (green foxtail); [4]) [%] | GR50, SETVI (SETVI (green foxtail)) [g ai/ha] | GR80, SETVI (SETVI (green foxtail)) [g ai/ha] | pest or weed control at 35 g/ha (HORSS; [5]) [%] | pest or weed control at 70 g/ha (HORSS; [5]) [%] | GR20, HORSS (HORSS) [g ai/ha] | GR50, LOLSS (LOLSS) [g ai/ha] | also measured
1 | COC(=O)c1nc(-c2ccc(C(F)(F)F)nc2)c(Cl)c(N)c1Cl [Compound 83] | 60 to 74 | 75 to 84 | 25 | 58 | 30 to 44 | 30 to 44 | 89 | >140 | 0 to 29 | 30 to 44 | 113 | >140 | 0 to 29 | 60 to 74 | 63 | 139 | 75 to 84 | 85 to 94 | 3 | 59 | GR80, LOLSS (LOLSS): 99 g ai/ha; pest or weed control at 35 g/ha (LOLSS; [6]): 0 to 29%; pest or weed control at 70 g/ha (LOLSS; [6]): 60 to 74%; pest or weed control at 35 g/ha (TRZSS; [7]): 60 to 74%; pest or weed control at 70 g/ha (TRZSS; [7]): 75 to 84%; GR20, TRZSS (TRZSS): 4 g ai/ha
2 | Nc1c(F)c(-c2ccc(C3CC3)nc2)nc(C(=O)O)c1Cl [Compound 36, 4-amino-5-chloro-6′-cyclopropyl-3-fluoro-[2,3′-bipyridine]-6-carboxylic acid] | 0 to 29 | 30 to 44 | 126 | >140 | 45 to 59 | 85 to 94 | 24 | 53 | 45 to 59 | 60 to 74 | 34 | 108 | 30 to 44 | 45 to 59 | 59 | >140 | 60 to 74 | 75 to 84 | 1 | 44 | GR80, LOLSS (LOLSS): 131 g ai/ha; pest or weed control at 35 g/ha (LOLSS; [6]): 45 to 59%; pest or weed control at 70 g/ha (LOLSS; [6]): 45 to 59%; pest or weed control at 35 g/ha (TRZSS; [7]): 60 to 74%; pest or weed control at 70 g/ha (TRZSS; [7]): 75 to 84%; GR20, TRZSS (TRZSS): 1 g ai/ha
3 | COC(=O)c1nc(-c2ccc(C3CC3)nc2)c(F)c(N)c1Cl [Compound 49] | 0 to 29 | 30 to 44 | >140 | >140 | 85 to 94 | 75 to 84 | 1 | 24 | 95 to 100 | 95 to 100 | 9 | 17 | 30 to 44 | 95 to 100 | 28 | 57 | 75 to 84 | 85 to 94 | 1 | 15 | pest or weed control at 140 g/ha (ALOMY (blackgrass); Alopecurus myosuroides, post-emergence, 504 h, 140 g ai/ha, postemergence, read-out: Visual Growth Reduction (%) 21 Days After Application, ALOMY): 45 to 59%; pest or weed control at 140 g/ha (APESV (windgrass); Apera spica-venti, post-emergence, 504 h, 140 g ai/ha, postemergence, read-out: Visual Growth Reduction (%) 21 Days After Application, APESV): 85 to 94%; pest or weed control at 140 g/ha (KCHSC (kochia); Bassia scoparia, post-emergence, 504 h, 140 g ai/ha, postemergence, read-out: Visual Growth Reduction (%) 21 Days After Application, KCHSC): 85 to 94%; pest or weed control at 140 g/ha (SETVI (green foxtail); Setaria viridis, post-emergence, 504 h, 140 g ai/ha, postemergence, read-out: Visual Growth Reduction (%) 21 Days After Application, SETVI): 95 to 100%; pest or weed control at 140 g/ha (HORSS; Hordeum vulgare, post-emergence, 504 h, 140 g ai/ha, postemergence, read-out: Visual Growth Reduction (%) 21 Days After Application, HORSS): 85 to 94%; GR80, LOLSS (LOLSS): 31 g ai/ha; pest or weed control at 35 g/ha (LOLSS; [6]): 95 to 100%; pest or weed control at 70 g/ha (LOLSS; [6]): 85 to 94%; pest or weed control at 140 g/ha (LOLSS; post-emergence, 504 h, 140 g ai/ha, postemergence, read-out: Visual Growth Reduction (%) 21 Days After Application, LOLSS): 85 to 94%; pest or weed control at 35 g/ha (TRZSS; [7]): 75 to 84%; pest or weed control at 70 g/ha (TRZSS; [7]): 85 to 94%; pest or weed control at 140 g/ha (TRZSS; Triticum aestivum, post-emergence, 504 h, 140 g ai/ha, postemergence, read-out: Visual Growth Reduction (%) 21 Days After Application, TRZSS): 85 to 94%; GR20, TRZSS (TRZSS): 1 g ai/ha
